This note sets out measurements from ChEMBL document CHEMBL3124777, “Synthesis and biological evaluation of thiazoline derivatives as new antimicrobial and anticancer agents” (Eur J Med Chem, 2014).

Converted amounts (≈) assume the structure as drawn. A value given as a limit tells only on which side of the number the result lay.

For one assay, the system named is C6. Briefly: Cytotoxicity against rat C6 cells after 24 hrs by MTT assay. Type of assay: functional, cell-based. The note with it: C6, 24 h. For orientation: Tetrazolium dyes change colour on reduction, which living cells bring about.
Usually IC50 stands for the point on the concentration scale where inhibition reaches its midpoint. Compound `N#Cc1ccc(-c2cs/c(=N/NC(=O)CSc3nnnn3-c3ccccc3)n2-c2ccccc2)cc1` showed a concentration for half-maximal inhibition (IC50) above 200 µg/mL.

The subject of the next assay is NIH3T3. The assay is described as follows: Cytotoxicity against mouse NIH/3T3 cells after 24 hrs by MTT assay. The note with it: NIH3T3, 24 h. The assay is classed as cell-based.
`N#Cc1ccc(-c2cs/c(=N/NC(=O)CSc3nnnn3-c3ccccc3)n2-c2ccccc2)cc1` yielded a half-inhibitory concentration (IC50) of 453 µg/mL (≈ 888 µM).

The compound `Cn1cnnc1SCC(=O)N/N=c1/scc(-c2ccc([N+](=O)[O-])cc2)n1-c1ccccc1` gave an IC50 of 133 µg/mL (≈ 285 µM).

In the case of `Cn1cnnc1SCC(=O)N/N=c1/scc(-c2ccc(Cl)cc2)n1-c1ccccc1`, 51.7 µg/mL (≈ 113 µM) corresponded to half-maximal inhibition (IC50).

A further assay relates to C6. The assay is described as follows: Cytotoxicity against rat C6 cells assessed as cell viability at 200 ug/ml after 24 hrs by MTT assay relative to control. Type of assay: functional. The note with it: C6, 24 h, read-out: Activity.
For `N#Cc1ccc(-c2cs/c(=N/NC(=O)CSc3nnnn3-c3ccccc3)n2-c2ccccc2)cc1`, the viability at 200 µg/mL turned out to be 54%.

The test system of another assay is C6. Briefly: Cytotoxicity against rat C6 cells assessed as cell viability at 100 ug/ml after 24 hrs by MTT assay relative to control. The assay is classed as functional. The note with it: C6, 24 h, read-out: Activity.
As for `N#Cc1ccc(-c2cs/c(=N/NC(=O)CSc3nnnn3-c3ccccc3)n2-c2ccccc2)cc1`, the viability at 100 µg/mL worked out at 59.8%.

Another assay deals with C6. The assay is described as follows: Cytotoxicity against rat C6 cells assessed as cell viability at 50 ug/ml after 24 hrs by MTT assay relative to control. Type of assay: functional. The note with it: C6, 24 h, read-out: Activity.
On to `N#Cc1ccc(-c2cs/c(=N/NC(=O)CSc3nnnn3-c3ccccc3)n2-c2ccccc2)cc1`, for which the viability at 50 µg/mL was determined as 61.1%.

The next assay deals with C6. Briefly: Cytotoxicity against rat C6 cells assessed as cell viability at 25 ug/ml after 24 hrs by MTT assay relative to control. The conditions noted are these: C6, 24 h, read-out: Activity. The assay is classed as functional.
On to `N#Cc1ccc(-c2cs/c(=N/NC(=O)CSc3nnnn3-c3ccccc3)n2-c2ccccc2)cc1`, for which the viability at 25 µg/mL amounted to 64.2%.

A further assay deals with C6. The assay is described as follows: Cytotoxicity against rat C6 cells assessed as cell viability at 12 ug/ml after 24 hrs by MTT assay relative to control. The conditions noted are these: C6, 24 h, read-out: Activity. Type of assay: functional.
Take `N#Cc1ccc(-c2cs/c(=N/NC(=O)CSc3nnnn3-c3ccccc3)n2-c2ccccc2)cc1`: the viability at 12 µg/mL worked out at 74.1%.

The next assay relates to C6. The assay is described as follows: Cytotoxicity against rat C6 cells assessed as cell viability at 6 ug/ml after 24 hrs by MTT assay relative to control. The assay is classed as functional. The conditions noted are these: C6, 24 h, read-out: Activity.
With `N#Cc1ccc(-c2cs/c(=N/NC(=O)CSc3nnnn3-c3ccccc3)n2-c2ccccc2)cc1`, the viability at 6 µg/mL is 78.8%.

In another assay the test system is Candida albicans. Briefly: Antimicrobial activity against Candida albicans ATCC 22019 after 18 to 24 hrs by microbroth dilution method. The assay is classed as functional.
Conditions: not given
A general note: Broth dilution looks for growth in wells or tubes with falling amounts of substance.
Broadly, the MIC is the lowest concentration found to suppress growth. High values mean a need for much substance, low ones inhibition by little substance. Take `N#Cc1ccc(-c2cs/c(=N/NC(=O)CSc3nnnn3-c3ccccc3)n2-c2ccccc2)cc1`: the MIC worked out at 250 µg/mL (≈ 490 µM).

`Cn1cnnc1SCC(=O)N/N=c1/scc(-c2ccc([N+](=O)[O-])cc2)n1-c1ccccc1` yielded a minimal inhibitory concentration (MIC) of 250 µg/mL (≈ 535 µM).

Compound `Cn1cnnc1SCC(=O)N/N=c1/scc(-c2ccc(Cl)cc2)n1-c1ccccc1` showed an MIC of 250 µg/mL (≈ 547 µM).

For another assay, the system named is Fusarium culmorum. Briefly: Antimicrobial activity against wild type Fusarium culmorum after 48 to 72 hrs by microbroth dilution method. The assay is classed as functional.
Conditions: not given
On to `N#Cc1ccc(-c2cs/c(=N/NC(=O)CSc3nnnn3-c3ccccc3)n2-c2ccccc2)cc1`, for which the minimal inhibitory concentration (MIC) was found to be 250 µg/mL (≈ 490 µM).

`Cn1cnnc1SCC(=O)N/N=c1/scc(-c2ccc([N+](=O)[O-])cc2)n1-c1ccccc1` yielded an MIC of 250 µg/mL (≈ 535 µM).

As for `Cn1cnnc1SCC(=O)N/N=c1/scc(-c2ccc(Cl)cc2)n1-c1ccccc1`, the MIC was found to be 250 µg/mL (≈ 547 µM).

The subject of the next assay is Fusarium verticillioides. Briefly: Antimicrobial activity against Fusarium moniliforme NRRL 1866 after 48 to 72 hrs by microbroth dilution method. The assay is classed as functional.
Conditions: not given
`N#Cc1ccc(-c2cs/c(=N/NC(=O)CSc3nnnn3-c3ccccc3)n2-c2ccccc2)cc1` showed an MIC of 250 µg/mL (≈ 490 µM).

Regarding `Cn1cnnc1SCC(=O)N/N=c1/scc(-c2ccc([N+](=O)[O-])cc2)n1-c1ccccc1`, the MIC was determined as 250 µg/mL (≈ 535 µM).

`Cn1cnnc1SCC(=O)N/N=c1/scc(-c2ccc(Cl)cc2)n1-c1ccccc1` yielded an MIC of 250 µg/mL (≈ 547 µM).

The subject of the next assay is Fusarium solani. The assay is described as follows: Antimicrobial activity against Fusarium solani NRRL 13414 after 48 to 72 hrs by microbroth dilution method. The assay is classed as functional.
Conditions: not given
For the compound `N#Cc1ccc(-c2cs/c(=N/NC(=O)CSc3nnnn3-c3ccccc3)n2-c2ccccc2)cc1`, the MIC amounted to 250 µg/mL (≈ 490 µM).

Compound `Cn1cnnc1SCC(=O)N/N=c1/scc(-c2ccc([N+](=O)[O-])cc2)n1-c1ccccc1` registered a minimal inhibitory concentration (MIC) of 250 µg/mL (≈ 535 µM).

`Cn1cnnc1SCC(=O)N/N=c1/scc(-c2ccc(Cl)cc2)n1-c1ccccc1` came in with an MIC of 250 µg/mL (≈ 547 µM).

For another assay, the system named is Aspergillus ochraceus. The assay is described as follows: Antimicrobial activity against Aspergillus ochraceus NRRL 3174 after 48 to 72 hrs by microbroth dilution method. Type of assay: functional.
Conditions: not given
In the case of `N#Cc1ccc(-c2cs/c(=N/NC(=O)CSc3nnnn3-c3ccccc3)n2-c2ccccc2)cc1`, the MIC came to 250 µg/mL (≈ 490 µM).

The compound `Cn1cnnc1SCC(=O)N/N=c1/scc(-c2ccc([N+](=O)[O-])cc2)n1-c1ccccc1` registered an MIC of 250 µg/mL (≈ 535 µM).

On to `Cn1cnnc1SCC(=O)N/N=c1/scc(-c2ccc(Cl)cc2)n1-c1ccccc1`, for which the minimum inhibitory concentration (MIC) is 250 µg/mL (≈ 547 µM).

The next assay concerns Trichoderma harzianum. The assay is described as follows: Antimicrobial activity against Trichoderma harzianum NRRL 20565 after 48 to 72 hrs by microbroth dilution method. The assay is classed as functional.
Conditions: not given
In turn, `N#Cc1ccc(-c2cs/c(=N/NC(=O)CSc3nnnn3-c3ccccc3)n2-c2ccccc2)cc1` showed a minimum inhibitory concentration (MIC) of 250 µg/mL (≈ 490 µM).

`Cn1cnnc1SCC(=O)N/N=c1/scc(-c2ccc([N+](=O)[O-])cc2)n1-c1ccccc1` gave a minimal inhibitory concentration (MIC) of 250 µg/mL (≈ 535 µM).

For the compound `Cn1cnnc1SCC(=O)N/N=c1/scc(-c2ccc(Cl)cc2)n1-c1ccccc1`, the MIC was 125 µg/mL (≈ 274 µM).

The next assay deals with Penicillium chrysogenum. Briefly: Antimicrobial activity against Penicillium chrysogenum NRRL 1951 after 48 to 72 hrs by microbroth dilution method. Type of assay: functional.
Conditions: not given
In the case of `N#Cc1ccc(-c2cs/c(=N/NC(=O)CSc3nnnn3-c3ccccc3)n2-c2ccccc2)cc1`, the MIC is 250 µg/mL (≈ 490 µM).

`Cn1cnnc1SCC(=O)N/N=c1/scc(-c2ccc([N+](=O)[O-])cc2)n1-c1ccccc1` registered an MIC of 250 µg/mL (≈ 535 µM).

In turn, `Cn1cnnc1SCC(=O)N/N=c1/scc(-c2ccc(Cl)cc2)n1-c1ccccc1` yielded an MIC of 250 µg/mL (≈ 547 µM).

The subject of a further assay is Aspergillus parasiticus. The assay is described as follows: Antimicrobial activity against Aspergillus parasiticus NRRL 465 after 48 to 72 hrs by microbroth dilution method. The assay is classed as functional.
Conditions: not given
`N#Cc1ccc(-c2cs/c(=N/NC(=O)CSc3nnnn3-c3ccccc3)n2-c2ccccc2)cc1`: the minimum inhibitory concentration (MIC) turned out to be 250 µg/mL (≈ 490 µM).

In the case of `Cn1cnnc1SCC(=O)N/N=c1/scc(-c2ccc([N+](=O)[O-])cc2)n1-c1ccccc1`, the MIC was 250 µg/mL (≈ 535 µM).

Turning to `Cn1cnnc1SCC(=O)N/N=c1/scc(-c2ccc(Cl)cc2)n1-c1ccccc1`, the MIC amounted to 250 µg/mL (≈ 547 µM).

Another assay deals with Bacillus subtilis. Briefly: Antimicrobial activity against Bacillus subtilis NRS-744 after 18 to 24 hrs by microbroth dilution method. The assay is classed as functional.
Conditions: not given
Regarding `N#Cc1ccc(-c2cs/c(=N/NC(=O)CSc3nnnn3-c3ccccc3)n2-c2ccccc2)cc1`, the MIC worked out at 250 µg/mL (≈ 490 µM).

Regarding `Cn1cnnc1SCC(=O)N/N=c1/scc(-c2ccc([N+](=O)[O-])cc2)n1-c1ccccc1`, the minimal inhibitory concentration (MIC) came to 125 µg/mL (≈ 267 µM).

`Cn1cnnc1SCC(=O)N/N=c1/scc(-c2ccc(Cl)cc2)n1-c1ccccc1` returned an MIC of 125 µg/mL (≈ 274 µM).

Another assay concerns Micrococcus luteus. The assay is described as follows: Antimicrobial activity against Micrococcus luteus NRLL B-4375 after 18 to 24 hrs by microbroth dilution method.
Conditions: not given
Type of assay: functional.
`N#Cc1ccc(-c2cs/c(=N/NC(=O)CSc3nnnn3-c3ccccc3)n2-c2ccccc2)cc1` yielded a minimal inhibitory concentration (MIC) of 250 µg/mL (≈ 490 µM).

In turn, `Cn1cnnc1SCC(=O)N/N=c1/scc(-c2ccc([N+](=O)[O-])cc2)n1-c1ccccc1` gave a minimum inhibitory concentration (MIC) of 125 µg/mL (≈ 267 µM).

The compound `Cn1cnnc1SCC(=O)N/N=c1/scc(-c2ccc(Cl)cc2)n1-c1ccccc1` had an MIC of 125 µg/mL (≈ 274 µM).

The test system of another assay is Pseudomonas aeruginosa. The assay is described as follows: Antimicrobial activity against Pseudomonas aeruginosa […] after 18 to 24 hrs by microbroth dilution method. Type of assay: functional.
Conditions: not given
For `N#Cc1ccc(-c2cs/c(=N/NC(=O)CSc3nnnn3-c3ccccc3)n2-c2ccccc2)cc1`, the MIC worked out at 250 µg/mL (≈ 490 µM).

In the case of `Cn1cnnc1SCC(=O)N/N=c1/scc(-c2ccc([N+](=O)[O-])cc2)n1-c1ccccc1`, the minimum inhibitory concentration (MIC) stood at 250 µg/mL (≈ 535 µM).

Compound `Cn1cnnc1SCC(=O)N/N=c1/scc(-c2ccc(Cl)cc2)n1-c1ccccc1` yielded an MIC of 250 µg/mL (≈ 547 µM).

Another assay concerns Escherichia coli. The assay is described as follows: Antimicrobial activity against Escherichia coli ATCC 25922 after 18 to 24 hrs by microbroth dilution method. Type of assay: functional.
Conditions: not given
`N#Cc1ccc(-c2cs/c(=N/NC(=O)CSc3nnnn3-c3ccccc3)n2-c2ccccc2)cc1` gave a minimum inhibitory concentration (MIC) of 250 µg/mL (≈ 490 µM).

In the case of `Cn1cnnc1SCC(=O)N/N=c1/scc(-c2ccc([N+](=O)[O-])cc2)n1-c1ccccc1`, the minimal inhibitory concentration (MIC) is 250 µg/mL (≈ 535 µM).

Compound `Cn1cnnc1SCC(=O)N/N=c1/scc(-c2ccc(Cl)cc2)n1-c1ccccc1` came in with an MIC of 125 µg/mL (≈ 274 µM).

For a further assay, the system named is Listeria monocytogenes. Briefly: Antimicrobial activity against Listeria monocytogenes ATCC 7644 after 18 to 24 hrs by microbroth dilution method. Type of assay: functional.
Conditions: not given
In turn, `N#Cc1ccc(-c2cs/c(=N/NC(=O)CSc3nnnn3-c3ccccc3)n2-c2ccccc2)cc1` showed an MIC of 250 µg/mL (≈ 490 µM).

Consider `Cn1cnnc1SCC(=O)N/N=c1/scc(-c2ccc([N+](=O)[O-])cc2)n1-c1ccccc1`, for which it took 250 µg/mL (≈ 535 µM) to inhibit growth (MIC).

`Cn1cnnc1SCC(=O)N/N=c1/scc(-c2ccc(Cl)cc2)n1-c1ccccc1` had a minimal inhibitory concentration (MIC) of 250 µg/mL (≈ 547 µM).

A further assay concerns Staphylococcus aureus. The assay is described as follows: Antimicrobial activity against Staphylococcus aureus NRRL B-767 after 18 to 24 hrs by microbroth dilution method.
Conditions: not given
Type of assay: functional.
The compound `N#Cc1ccc(-c2cs/c(=N/NC(=O)CSc3nnnn3-c3ccccc3)n2-c2ccccc2)cc1` returned an MIC of 500 µg/mL (≈ 979 µM).

With `Cn1cnnc1SCC(=O)N/N=c1/scc(-c2ccc([N+](=O)[O-])cc2)n1-c1ccccc1`, the MIC was determined as 250 µg/mL (≈ 535 µM).

In the case of `Cn1cnnc1SCC(=O)N/N=c1/scc(-c2ccc(Cl)cc2)n1-c1ccccc1`, the MIC is 125 µg/mL (≈ 274 µM).
